# Molecular target: T1, N-terminally GST-tagged human full length recombinant Mps-1 kinase (Homo sapiens, UniProt P33981)
# T1 construct: N-terminally GST-tagged human full length recombinant Mps-1 kinase; purchased Invitrogen, Karslruhe, Germany PV4071
# T1 sequence (P33981 1-857): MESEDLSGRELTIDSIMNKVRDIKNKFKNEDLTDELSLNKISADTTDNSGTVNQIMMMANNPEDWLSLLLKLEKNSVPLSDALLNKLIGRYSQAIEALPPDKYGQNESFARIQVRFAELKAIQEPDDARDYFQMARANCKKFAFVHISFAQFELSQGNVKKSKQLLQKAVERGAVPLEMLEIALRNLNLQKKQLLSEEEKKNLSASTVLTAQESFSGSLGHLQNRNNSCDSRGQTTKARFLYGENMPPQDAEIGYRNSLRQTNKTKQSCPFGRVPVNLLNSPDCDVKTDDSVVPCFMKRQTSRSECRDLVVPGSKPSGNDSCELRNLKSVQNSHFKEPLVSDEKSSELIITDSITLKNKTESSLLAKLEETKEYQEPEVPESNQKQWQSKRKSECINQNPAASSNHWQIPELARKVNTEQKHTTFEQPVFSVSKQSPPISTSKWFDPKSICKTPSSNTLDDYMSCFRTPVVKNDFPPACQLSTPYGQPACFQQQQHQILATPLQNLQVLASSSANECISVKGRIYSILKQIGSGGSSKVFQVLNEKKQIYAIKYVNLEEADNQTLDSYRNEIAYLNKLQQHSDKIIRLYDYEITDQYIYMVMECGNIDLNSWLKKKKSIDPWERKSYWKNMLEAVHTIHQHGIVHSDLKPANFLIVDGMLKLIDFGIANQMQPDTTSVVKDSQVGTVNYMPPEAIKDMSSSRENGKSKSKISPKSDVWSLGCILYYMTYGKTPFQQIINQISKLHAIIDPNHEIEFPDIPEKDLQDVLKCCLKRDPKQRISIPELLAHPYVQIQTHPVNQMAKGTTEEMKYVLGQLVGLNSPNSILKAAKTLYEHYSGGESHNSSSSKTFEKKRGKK
# Assay: Mps-1 kinase assay (TR-FRET)
# Format: biochemical
# Details: Mps1 IC50 [nM], 10 μM ATP, 1 μM peptide substrate, 60 min at 22° C.
# Procedure, shortened: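 TR-FRET signal between a Europium anti-phospho-Ser/Thr antibody and streptavidin-XLent reported phosphorylation of a biotinylated peptide by GST-tagged full-length Mps-1. Enzyme was near 1 nM final, chosen per lot for linearity.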
row,SMILES,IC50 [nM]
1,"Cc1cc(F)cc(Sc2cc(NCCC(F)(F)F)c3ncc(-c4ccc(C(=O)NC5CC5)c(C)c4)n3n2)c1 [Example 79, N-cyclopropyl-4-{6-[(3-fluoro-5-methylphenyl)sulfanyl]-8-[(3,3,3-trifluoropropyl)amino]imidazo[1,2-b]pyridazin-3-yl}-2-methylbenzamide]",0.7
2,"Cc1cc(F)cc(Oc2cc(NCCC(F)(F)F)c3ncc(-c4ccc(C(=O)NC5CC5)c(C)c4)n3n2)c1 [Example 88, N-cyclopropyl-4-{6-(3-fluoro-5-methylphenoxy)-8-[(3,3,3-trifluoropropyl)amino]imidazo[1,2-b]pyridazin-3-yl}-2-methylbenzamide]",0.4
3,"Cc1cc(-c2cnc3c(NCC(C)(C)O)cc(Oc4ccc(Cl)cc4)nn23)ccc1C(=O)NC1CC1 [Example 90, 4-{6-(4-Chlorophenoxy)-8-[(2-hydroxy-2-methylpropyl)amino]imidazo[1,2-b]pyridazin-3-yl}-N-cyclopropyl-2-methylbenzamide]",0.5
4,"Cc1cc(-c2cnc3c(NCC(C)(C)O)cc(Oc4ccc(F)c(Cl)c4)nn23)ccc1C(=O)NC1CC1 [Example 91, 4-{6-(3-Chloro-4-fluorophenoxy)-8-[(2-hydroxy-2-methylpropyl)amino]imidazo[1,2-b]pyridazin-3-yl}-N-cyclopropyl-2-methylbenzamide]",0.5
5,"Cc1cc(-c2cnc3c(NCC(C)(C)O)cc(Oc4ccc(Cl)c(F)c4)nn23)ccc1C(=O)NC1CC1 [Example 95, 4-{6-(4-Chloro-3-fluorophenoxy)-8-[(2-hydroxy-2-methylpropyl)amino]imidazo[1,2-b]pyridazin-3-yl}-N-cyclopropyl-2-methylbenzamide]",0.3
6,"Cc1cc(C)cc(Oc2cc(NCC(C)(C)O)c3ncc(-c4ccc(C(=O)NC5CC5)c(C)c4)n3n2)c1 [Example 96, N-cyclopropyl-4-{6-(3,5-dimethylphenoxy)-8-[(2-hydroxy-2-methylpropyl)amino]imidazo[1,2-b]pyridazin-3-yl}-2-methylbenzamide]",0.8
7,"NS(=O)(=O)CCNc1cc(Cl)nn2c(-c3ccc(C(=O)NC4CC4)cc3)cnc12 [Example 98, 4-{6-Chloro-8-[(2-sulfamoylethyl)amino]imidazo[1,2-b]pyridazin-3-yl}-N-cyclopropylbenzamide]",52.3
8,"Cc1cc(-c2cnc3c(NCC(C)C)cc(Cl)nn23)ccc1C(=O)NC1CC1 [Example 99, 4-{6-Chloro-8-[(2-methylpropyl)amino]imidazo[1,2-b]pyridazin-3-yl}-N-cyclopropyl-2-methylbenzamide]",29.5
9,"CC(C)CNc1cc(-c2cccc3ccccc23)nn2c(-c3ccc(C(=O)NC4CC4)cc3)cnc12 [Example 102, N-cyclopropyl-4-{8-[(2-methylpropyl)amino]-6-(naphthalen-1-yl)imidazo[1,2-b]pyridazin-3-yl}benzamide]",24.6
10,"CC(C)CNc1cc(-c2cccc(CO)c2)nn2c(-c3ccc(C(=O)NC4CC4)cc3)cnc12 [Example 103, N-cyclopropyl-4-{6-[3-(hydroxymethyl)phenyl]-8-[(2-methylpropyl)amino]imidazo[1,2-b]pyridazin-3-yl}benzamide]",< 1

# Second part, the compound after the results:
row,IC50 [nM],SMILES
1,0.2,"Cc1cc(-c2cnc3c(NCC(C)(C)N)cc(Sc4cccc(F)c4)nn23)ccc1C(=O)NC1CC1 [Example 78, 4-{8-[(2-Amino-2-methylpropyl)amino]-6-[(3-fluorophenyl)sulfanyl]imidazo[1,2-b]pyridazin-3-yl}-N-cyclopropyl-2-methylbenzamide]"
2,0.2,"Cc1ccc(F)c(Oc2cc(NCC(C)(C)O)c3ncc(-c4ccc(C(=O)NC5CC5)c(C)c4)n3n2)c1 [Example 81, N-cyclopropyl-4-{6-(2-fluoro-5-methylphenoxy)-8-[(2-hydroxy-2-methylpropyl)amino]imidazo[1,2-b]pyridazin-3-yl}-2-methylbenzamide]"
3,0.3,"Cc1cc(-c2cnc3c(NCC(C)(C)O)cc(Oc4cccc(C#N)c4)nn23)ccc1C(=O)NC1CC1 [Example 82, 4-{6-(3-Cyanophenoxy)-8-[(2-hydroxy-2-methylpropyl)amino]imidazo[1,2-b]pyridazin-3-yl}-N-cyclopropyl-2-methylbenzamide]"
4,0.2,"Cc1cc(-c2cnc3c(NCCC(F)(F)F)cc(S(=O)(=O)c4cccc(F)c4)nn23)ccc1C(=O)NC1CC1 [Example 83A, N-cyclopropyl-4-{6-[(3-fluorophenyl)sulfonyl]-8-[(3,3,3-trifluoropropyl)amino]imidazo[1,2-b]pyridazin-3-yl}-2-methylbenzamide]"
5,0.3,"Cc1cc(-c2cnc3c(NCCC(F)(F)F)cc(Sc4ccccc4)nn23)ccc1C(=S)NC1CC1 [Example 84, N-cyclopropyl-2-methyl-4-{6-(phenylsulfanyl)-8-[(3,3,3-trifluoropropyl)amino]imidazo[1,2-b]pyridazin-3-yl}benzenecarbothioamide]"
6,0.2,"Cc1cc(-c2cnc3c(NCC(C)(C)O)cc(Oc4cccc(Cl)c4)nn23)ccc1C(=O)NC1CC1 [Example 85, 4-{6-(3-Chlorophenoxy)-8-[(2-hydroxy-2-methylpropyl)amino]imidazo[1,2-b]pyridazin-3-yl}-N-cyclopropyl-2-methylbenzamide]"
7,0.1,"COc1ccc(Oc2cc(NCC(C)(C)O)c3ncc(-c4ccc(C(=O)NC5CC5)c(C)c4)n3n2)cc1 [Example 86, N-cyclopropyl-4-{8-[(2-hydroxy-2-methylpropyl)amino]-6-(4-methoxyphenoxy)imidazo[1,2-b]pyridazin-3-yl}-2-methylbenzamide]"
8,0.2,"Cc1cc(F)cc(Oc2cc(NCC(C)(C)O)c3ncc(-c4ccc(C(=O)NC5CC5)c(C)c4)n3n2)c1 [Example 87, N-cyclopropyl-4-{6-(3-fluoro-5-methylphenoxy)-8-[(2-hydroxy-2-methylpropyl)amino]imidazo[1,2-b]pyridazin-3-yl}-2-methylbenzamide]"
9,0.2,"Cc1cc(-c2cnc3c(NCC(C)(C)O)cc(Sc4cccc(F)c4)nn23)ccc1C(=O)NC1CC1 [Example 89, N-cyclopropyl-4-{6-[(3-fluorophenyl)sulfanyl]-8-[(2-hydroxy-2-methylpropyl)amino]imidazo[1,2-b]pyridazin-3-yl}-2-methylbenzamide]"
10,0.2,"Cc1cc(-c2cnc3c(NCC(C)(C)O)cc(Oc4cccc(F)c4F)nn23)ccc1C(=O)NC1CC1 [Example 92, N-cyclopropyl-4-{6-(2,3-difluorophenoxy)-8-[(2-hydroxy-2-methylpropyl)amino]imidazo[1,2-b]pyridazin-3-yl}-2-methylbenzamide]"
11,0.3,"Cc1cc(-c2cnc3c(NCC(C)(C)O)cc(Oc4ccccc4F)nn23)ccc1C(=O)NC1CC1 [Example 93, N-cyclopropyl-4-{6-(2-fluorophenoxy)-8-[(2-hydroxy-2-methylpropyl)amino]imidazo[1,2-b]pyridazin-3-yl}-2-methylbenzamide]"
12,0.3,"Cc1cc(-c2cnc3c(NCC(C)(C)O)cc(Oc4cccc(C(C)C)c4)nn23)ccc1C(=O)NC1CC1 [Example 94, N-cyclopropyl-4-{8-[(2-hydroxy-2-methylpropyl)amino]-6-(3-isopropylphenoxy)imidazo[1,2-b]pyridazin-3-yl}-2-methylbenzamide]"
13,0.2,"Cc1cccc(Oc2cc(NCC(C)(C)O)c3ncc(-c4ccc(C(=O)NC5CC5)c(C)c4)n3n2)c1 [Example 97, N-cyclopropyl-4-{8-[(2-hydroxy-2-methylpropyl)amino]-6-(3-methylphenoxy)imidazo[1,2-b]pyridazin-3-yl}-2-methylbenzamide]"
